Experiments:
C57Bl/6J mice = experiment: LPS-induced endotoxic shock, serum cytokines; assay type: in vivo, mouse; settings: for level of inflammatory cytokines in the serum: endotoxin shock model, short TSLP fragments
Experimental: (§1) Mice were treated intraperitoneally (i.p.) with short TSLP at 50, 100, 200 μg per mouse in 200 μl of injectable water twice, 12 hours and 2 hours, before LPS administration (n=8 per group). Control mice received water. LPS (E. coli serotype 026:B6; Sigma-Aldrich) was injected intraperitoneally (i.p.) at 200 μg per mouse in 200 μl of injectable water. After 6 hours mice were euthanized by exsanguination under anesthesia and blood was collected. IFNgamma, IL6 and IL12-p40 levels were detected in the serum by ELISA (R&D Systems), according to manufacturer's instructions.

[1] = system: peripheral blood mononuclear cells (PBMC); experiment: bidirectional allogenic mixed lymphocyte reaction (MLR), IFNgamma by ELISA; assay type: cell-based, human; settings: PBMC from two donors 1:1, increasing doses, 5 days
Description: Buffy coats were obtained from healthy donors (Abbiategrasso hospital, Italy) with informed consent for research use. Peripheral blood mononuclear cells (PBMC) were separated with Ficoll (GE Healthcare) gradient centrifugation and then resuspended and cultured in RPMI 1640 medium (Lonza) containing 10% fetal bovine serum (Gibco), 1% Glutamine 1% pyruvate, 1% non essential AA and 1% Penicillin-Streptomycin. PBMC from two different donors were co-cultured (1:1) in presence of long and short TSLP at different concentrations. After 5 days supernatants were collected and IFNgamma levels were measured by ELISA (R&D systems).

[2] = system: monocyte-derived dendritic cells; experiment: FACS analysis of activation status of monocyte derived DCs; assay type: cell-based, human; settings: 24 h conditioning; immature and Salmonella treated (mature) DCs
Experimental: (§2) Peripheral CD14^+ monocytes were isolated from PBMC using human CD14^+ microbeads (Miltenyi Biotec) according to the manufacturer's instructions. Cells were then cultivated in complete RPMI 1640 medium in the presence of IL4 (2.5 ng/ml) and GM-CSF (5 ng/ml) (BD Biosciences) for 6 days to obtain monocyte-derived dendritic cells. The percentage and the phenotype of cell subsets were evaluated before and after differentiation by flow cytometry. Dendritic cells were seeded in complete RPMI 1640 medium at 1×10^6/ml in 48-well plates in the presence of short TSLP at different concentrations or culture medium alone. After 24 hours of culture dendritic cells were gently washed and challenged with Salmonella typhimurium FB62 (MOI 1:1) for 1 hour. Bacteria were then washed out and the medium replaced with medium containing 100 μg/ml gentamycin. Cytokine secretion was assessed after 24 hours by cytometric bead assay Flex sets (BD Biosciences). CBA were acquired on a BD Accuri C6 (BD Biosciences) and analyzed with FCAP software (BD Biosciences).
Cells were stained with monoclonal anti-human fluorescently conjugated antibodies: CD14 (M5E2), CD19 (HIB19), CD11c (B-ly6), CD45RA (HI100), CD3 (UCHT1), TNF (Mab11), IFNg (4S.B3), TNF (Mab11) from BD Biosciences; CD4 (RPA-T4) from Ebioscience; CD1a (HI149) and TSLPR (1B4) from Biolegend.

[3] = system: mice with DSS-induced colitis; experiment: DSS-induced colitis; assay type: in vivo, mouse; settings: 3% DSS, 200 μg i.p. every other day
Experimental: Colitis was induced by adding 3% (w/v) DSS (TdB Consultancy AB, Uppsala, Sweden) to drinking water for 9 days. Mice were treated i.p. with short TSLP (200 μg in 200 μl of injectable water) the day before DSS administration and every other day during the entire study. Mice were monitored daily for weight loss.

tslpr-/- mice = experiment: LPS-induced endotoxic shock in TSLPR knock-out mice; assay type: in vivo, mouse; settings: 200 μg i.p.
Experimental: Female C57Bl/6J mice (8 to 10 weeks of age) were obtained from Charles River Laboratories (Milan, Italy). TSLPR-deficient mice on the C57Bl/6J background were provided by Dr W. J. Leonard (Laboratory of Molecular Immunology, NHLBI, USA). Mice were bred and maintained at IFOM-IEO campus animal facility under specific pathogen-free conditions. All experiments were performed in accordance with the guidelines established in the Principle of Laboratory Animal Care (directive 86/609/EEC).
as §1

[4] = system: monocyte-derived dendritic cells; experiment: monocyte-derived DCs conditioned 24 h, then Salmonella challenge; cytokine secretion by cytometric bead assay; assay type: cell-based, human; settings: 24 h conditioning, then LPS or bacterial stimulation
Experimental: as §2

[5] = system: intestinal mucosa from ulcerative colitis patients; experiment: ex-vivo organ culture of intestinal mucosa from ulcerative colitis patients; set-up: species or system human; settings: 100 and 1000 ng/ml
Experimental: The activity of short TSLP on IBD tissues was assessed directly on human intestinal mucosa. Briefly, IBD mucosa was separated from the submucosa and mounted as described (Tsilingiri K., et al. J Vis Exp. 2013).

[6] = system: naive CD4 T cells cocultured with mDC; experiment: conditioned myeloid DCs cocultured with naive CD4 T cells; assay type: cell-based, human
Experimental: (§3) Myeloid BDCA1+ cells were isolated from PBMC using CD1c (BDCA-1)+ Dendritic Cell Isolation Kit (Miltenyi Biotec) according to the manufacturer's instructions. […] Cells were then washed and cocultured with naïve CD4 T cells from a different donor (ratio 1 DC: 5 T). CD4 cells were isolated using naive CD4+ T Cell Isolation Kit II (Miltenyi Biotec) according to the manufacturer's instructions. After 6 days supernatants were collected and cells were restimulated for 4 hours with PMA (phorbol 12-myristate 13-acetate, 50 ng/ml) and ionomycin (1 ug/ml); for the last 3 hours brefeldin A (10 ug/ml) was added to the culture. Intracellular staining for TNF and IFNgamma positive cells was performed afterwards. CCL17, CCL22 and IFNgamma levels were assessed in the supernatant of DC or of the DC-T culture by ELISA (R&D Systems).

HaCaT cells = experiment: qPCR of TSLP isoform mRNA in challenged HaCaT keratinocytes; assay type: cell-based, human; settings: 24 hours challenge
Experimental: RNA was extracted using the RNeasy Micro Kit (Qiagen). RNA was reverse transcribed with oligo(dT) and ImProm-II™ Reverse Transcriptase (Promega). Quantitative real-time PCRs were performed with Fast SYBR Green PCR kit on the Applied Biosystems 7900HT Fast RT-PCR System (Applied Biosystems). Results were quantified using the 2-DCt method (Livak and Schmittgen, Methods, 2001). Gene expression was normalized to the expression of the housekeeping gene, gapdh.
Caco2 cells were cultured in DMEM supplemented with 10% FBS, 1% Glutamine, 1% non-essential aminoacids, 1% Penicillin-Streptomycin. HaCaT cells were cultured in DMEM supplemented with 10% FBS, 1% Glutamine, 1% Penicillin-Streptomycin. For growth on transwell inserts (Corning), 2×10^5 caco2 cells were seeded on 6 mm^2 transwells and grown for 10-12 days, until transepithelial resistance was roughly […]. Cells were infected with bacteria in the absence of antibiotics at a multiplicity of infection of 1:100 for one hour. Then medium was replaced with complete medium containing 100 μg/mL Gentamicin and the cells were cultured for a further 23 hours. HaCaT cells were challenged with calcitriol, an active form of vitamin D, (10 μM, Enzo Life Sciences), or poly(I:C) (1 μg/mL) for 24 hours. At the end of the challenge cells were lysed in Trizol (Ambion, Life Technologies) reagent for RNA extraction or RIPA buffer for protein extraction.

[7] = system: myeloid dendritic cells (mDC); experiment: CCL17 and CCL22 ELISA in supernatants of myeloid DCs; assay type: cell-based, human; settings: 24 hours, in the absence and in the presence of the short isoform
Experimental: as §3

[8] = system: myeloid dendritic cells (mDC); experiment: flow cytometry of STAT5 pY694 in myeloid dendritic cells; assay type: cell-based, human; settings: 15 minutes, 3.5 nM, in the absence and in the presence of the short isoform
Experimental: Control conditions included cells either left unstimulated (negative control) or incubated with sodium pervanadate ([…], positive control, data not shown). At the end of incubation cells were rapidly spun, fixed with BD Cytofix™ Buffer for 15 minutes at 37° C. and permeabilized with BD™ Phosflow Perm Buffer III on ice for 30 minutes, followed by intracellular staining using mouse anti-pSTAT5 (pY694) antibody (45/Stat5, BD Biosciences) or isotype antibody (MOPC-21). Samples were acquired on a BD Cantoll flow cytometer (BD Biosciences) and analyzed with FlowJo software (v8.7, Tree Star).

[9] = i.p. 12 hours and 2 hours before LPS, 6 hours after LPS, dose-dependent

Compound: N terminal: N terminal fragment of short TSLP, aa 4-40 of SEQ ID NO: 1, mw 4.2 KDa (MKTKAALAIWCPGYSETQINATQAMKKRRKRKVTTNK; listed as Homo sapiens)
- level of inflammatory cytokines in the serum (C57Bl/6J mice): did not exert any effects
- IFN-gamma release in MLR [1]: inhibiting IFNgamma secretion

Compound: short TSLP: short TSLP peptide, aa 4-63 of SEQ ID NO: 1, mw 7 KDa, synthesized in house
- expression of maturation markers CD80, CD86 or HLA-DR [2]: no change
- body weight loss [3]: significantly limiting weight loss
- anti-inflammatory effect (serum cytokines) in TSLPR knock-out mice (tslpr-/- mice): also manifested
- IFN-γ in the sera (C57Bl/6J mice; [9]): significant decrease
- IL-6 in the sera (C57Bl/6J mice; [9]): significant decrease
- IL-12p40 in the sera (C57Bl/6J mice; [9]): significant decrease
- inhibition of the release of IFN-gamma [1]: 50%
- capacity to release IL12-p70 [4]: strongly affected
- capacity to release IL-1beta [4]: strongly affected
- capacity to release IL-6 [4]: strongly affected
- capacity to release IL-10 [4]: strongly affected
- capacity to release TNF-alfa [4]: strongly affected
- ongoing inflammation in the tissue [5]: ameliorated the ongoing inflammation in the tissue
- production of mucous by goblet cells [5]: restored the production of mucous by goblet cells
- tissue architecture [5]: normalized tissue architecture
- percentage of Th1 cells ([6]; conditioned DCs 24 h, 6 days coculture, IFNgamma intracellular staining): reducing the percentage of Th1 cells
- IFN-gamma secretion in DC-T coculture ([6]; conditioned DCs 24 h, supernatant day 6): reducing
- counter effect to long TSLP on myeloid DCs ([6]; equimolar ratio with long TSLP): does not mediate a counter effect to the long isoform

Compound: C=C1/C(=C\C=C2/CCC[C@]3(C)[C@@H]([C@H](C)CCCC(C)(C)O)CC[C@@H]23)C[C@@H](O)C[C@@H]1O [vitamin D, calcitriol]
- short TSLP mRNA (HaCaT cells): significantly upregulated mRNA for short TSLP

Compound: C terminal peptide: C terminal fragment of short TSLP, aa 24-63 of SEQ ID NO: 1, mw 4.8 KDa (ATQAMKKRRKRKVTTNKCLEQVSQLQGLWRRFNRPLLKQQ; listed as Homo sapiens)
- level of inflammatory cytokines in the serum (C57Bl/6J mice): able to reduce the level of inflammatory cytokines in the serum
- IFN-gamma release in MLR [1]: inhibiting IFNgamma secretion

Compound: polyI:C
- long TSLP mRNA (HaCaT cells): upregulated the long isoform

Compound: long TSLP: recombinant human TSLP long isoform, aa. 29-159 of SEQ ID NO: 2, from R&D Systems, or produced in house in baculovirus
- secretion of CCL17 [7]: significantly increased
- secretion of CCL22 [7]: significantly increased
- IFN-gamma release in MLR [1]: increasing the amount of IFN-gamma released
- STATS phosphorylation [8]: significantly increased
- ongoing inflammation in the tissue [5]: only short TSLP ameliorated the ongoing inflammation
